# Measurements as given in patent publication US20260035670A1, “IN VITRO CONSTRUCT USEFUL FOR DRUG TOXICITY SCREENING” (Wake Forest University Health Sciences, priority 2022, published 2026).
# How the values were obtained:
# USC in 2D culture = experiment: Cell viability and growth of USC in 2D culture treated with ddC; assay type: cell-based, human
# Procedure: Cell proliferation or viability was measured at different time points after USC were seeded on 2D, spheroids and 3D-SFM in 96-well plates, respectively, assessed by Cell Counting Kit-8 (CCK-8 assay, Dojindo, Japan), according to manufacturer's instructions. The absorbance at 450 nmwas measured using microplate reader (MultiSkan FC, Thermo, USA).
# [1] = tested on: oxidative phosphorylation complexes I-V in USC of 3D USC-SFM; experiment: Oxidative phosphorylation complexes I-V in 3D USC-SFM after ddC (Western blot); assay type: cell-based, human
# Procedure: (§1) To determine the dose effect of ddC on cell viability, mitochondrial function and oxidative stress of USC in both 3D cultures, ddC was added to spheroids and USC-SFM at different doses: […] 2 days, 3 replicates per concentration. To evaluate the time-dependent effect of ddC on USC in 3D cultures, spheroids and USC-SFM samples were assayed 2-6 weeks after administering ddC, 3 replicates per time point. DMSO (0.1%) was used as a control.
# (§2) To generate sufficient cell numbers for immunoblot analysis, USC (5×10^5 cells) within spheroids and 1-SFM were loaded in 81-well molds made by Micro-Tissues 3D Petri Dish (Sigma, USA). USC in 2D culture were seeded onto a 6-well plate at a density of 5×10^5 cells/well as control. After a wash of the cell samples with PBS, the USC were harvested and incubated for 30 min in the presence of […] of lysis buffer (Pierce, Rockford, IL) with 1% protease/phosphatase inhibitor cocktail (Cell Signaling Technology, Danvers, MA), vortexing every 5 min during incubating. The lysate was clarified by centrifugation, and protein concentrations were tested by Pierce™ BCA Protein Assay Kit. Following separation in 15% SDS-PAGE gels, the proteins were transferred onto a PVDF membrane (ThermoFisher) by a Bio-Rad Trans-Blot SD Semi-Dry Transfer Cell under 12 V for 1 h.
# (§3) Individual activity of oxidative phosphorylation complexes I, II, II IV, V94 and mitochondrial SOD2 in USC before or after treatment with ddC at three doses were assessed. The membrane was blocked for 30 min in PBS-0.1% Tween 20 (PBST) containing 5% bovine serum albumin (BSA), washed with PBST, and incubated with the primary antibodies for 2 h or 4° C. overnight, diluted by PBST containing 5% BSA. After extensive washing with PBST, the membrane was incubated in the secondary antibodies correspondingly for 1 h at room temperature. The washed membrane was treated with an Immobilon ECL Ultra Western HRP Substrate (Millipore Sigma) and analyzed with a Fujifilm LAS-3000 Luminescent Image Analyzer system.
# USC in 3D spheroids = experiment: mtDNA content (q-PCR) and mitochondrial mass of USC in 3D spheroids treated with ddC; assay type: cell-based, human
# Procedure: (§4) To determine the dose effect of ddC on cell viability, mitochondrial function and oxidative stress of USC in both 3D cultures, ddC was added to spheroids and USC-SFM at different doses: 0.2, 2 and 10 μM in the culture medium every 2 days, 3 replicates per concentration. To evaluate the time-dependent effect of ddC on USC in 3D cultures, spheroids and USC-SFM samples were assayed 2-6 weeks after administering ddC, 3 replicates per time point. DMSO (0.1%) was used as a control.
# (§5) To measure the levels of cell senescence genes ([…], 21 and Rb) (Kang et al. Science 349 (2015) aaa5612) and mitochondrial DNA (mtDNA) content, mRNA expression of spheroid (n ¼ 3) and 3D USC-SFM (n ¼ 3) samples were assessed using BioRad CFX connect Real-time PCR Detection System (Rooney et al. Methods Mol. Biol. 1241 (2015) 23e38). Genomic DNA was extracted from the cells using a DNeasy Blood & Tissue Kit (Qiagen, Valencia, Cat. No 69504) according to the manufacturer's protocol. The Q-PCR recipe was a mix with SYBR Green SuperMix (ThermoFisher, USA, Cat. No 4367659) using both the mitochondrial and the nuclear primers, and this temperature cycling was used: initial denaturing at 50° C. for 2 min, 95° C. for 15 min, followed by 40 cycles of denaturing at 95° C. for 30 s, annealing at 60° C. for 1 s and extension at 95° C. for 15 s, 60° C. for 1 min, annealing at 95° C. for 15 s, 60° C. for 1 min and dissociating at 95° C. for 15 s.
# USC in 3D USC-SFM = experiment: Cell viability/growth of 3D USC-SFM treated with ddC (CCK-8); assay type: cell-based, human
# Procedure: as §4, with “Cell proliferation or viability was measured at different time points after USC were seeded on 2D, spheroids and 3D-SFM in 96-well plates, respectively, assessed by Cell Counting Kit-8 (CCK-8 assay, Dojindo, Japan), according to manufacturer's instructions. The absorbance at 450 nmwas measured using microplate reader (MultiSkan FC, Thermo, USA). To determine” for “To determine”
# [2] = tested on: USC in 3D silk fiber matrix (3D USC-SFM); experiment: mtDNA content (q-PCR) and mitochondrial mass of USC in 3D USC-SFM treated with ddC; assay type: cell-based, human
# Procedure: as §1, §5
# [3] = tested on: oxidative phosphorylation complexes I-V in USC of 3D spheroids; experiment: Oxidative phosphorylation complexes I-V in 3D USC spheroids after ddC (Western blot); assay type: cell-based, human
# Procedure: as §4, §2, §3
# microglia cells = conditions: George et al. 2021; cited from earlier work
# [4] = Gorwood et al. 2020; cited from earlier work
# CD4+ T cells = conditions: Korencak et al. 2019; cited from earlier work
# [5] = 3D spheroids, six weeks after ddC (0.2, 2, and 10 µM), vs 0.1% DMSO control
# [6] = 3D USC-SFM, six weeks after ddC (0.2, 2, and 10 μM), vs 0.1% DMSO control
structure (smiles),measurement,setting,value
"Nc1ccn([C@H]2CC[C@@H](CO)O2)c(=O)n1 [ddC, Zalcitabine]",cell viability and growth of USC,USC in 2D culture,significantly affected
same,cells remaining on the dishes,USC in 2D culture; 2 weeks after ddC treatment,few cells remaining
same,"levels of complex I, and IV","[1]; 2 weeks, ddC 2 and 10 μM vs low dose (0.1 μM)",significantly decreased
same,mitochondrial toxicity (decreasing levels of complexes I-IV),[1]; 3D SFM,significant dose- and time-dependent
same,"Levels of complexes I, II, and III",[1]; 3D SFM-USC treated with ddC,significantly decreased
same,"levels of complexes II, III and IV",[1]; 3D USC-SFM compared to complex levels in spheroids,significantly decreased
same,chronic MtT,[1]; 3D USC-SFM model,dose- and time-dependent chronic MtT displayed
same,complex I-IV levels,"[1]; 3D USC-SFM, ddC 2 and 10 μM, 6 weeks compared to 2 weeks",significantly decreased
same,"increase of levels of complexes I, II and IV","[1]; 3D USC-SFM, low dose ddC",did not occur
same,mitochondrial function (inhibiting oxidative phosphorylation complex I-IV),[1]; 3D culture models,significant impairment
same,"levels of complex I, II, III and IV","[1]; 6 weeks, middle and high dose ddC vs low dose",significantly declined
same,activity of complex II-IV,"[1]; USC-SFM, ddC middle and high doses vs low dose, week 6",significantly decreased
same,expression of ETC complex I-IV,"[1]; USC-SFM, ddC middle and high doses, wk 6",decrease
same,Levels of mtDNA content,"USC in 3D spheroids; 3D spheroid of USC, 2 and 6 weeks, ddC 0.2, 2, or 20 μM, vs DMSO standardized as 100%",significantly decreased
same,Manner of decrease of mtDNA content,"USC in 3D spheroids; 3D spheroids of USC, q-PCR",dose-dependent manner
same,mitochondrial mass,USC in 3D spheroids; [5],significantly decreased
same,mtDNA content,USC in 3D spheroids; [5],significantly decreased
same,cell survival and growth,"USC in 3D USC-SFM; 3D USC-SFM, 3 days, or 1, 2, 4, and 6 weeks",did not significantly affect
same,cytotoxicity,USC in 3D USC-SFM; USC in 3D cultures,mild
same,Levels of mtDNA content,"[2]; 3D USC-SFM, 2 and 6 weeks, ddC 0.2, 2, or 20 μM, vs DMSO standardized as 100%",significantly decreased
same,Manner of decrease of mtDNA content,"[2]; 3D USC-SFM, q-PCR",time-depended manner
same,mitochondrial mass,[2]; [6],significantly decreased
same,mtDNA content,[2]; [6],significantly decreased
same,mtDNA content,"[2]; ddC at 2 or 20 μM compared to 0.1 μM ddC, 3D culture of USC (model not given)",significantly inhibited
same,expression of ETC complex I-IV,"[3]; 3D organoids, ddC middle and high doses, wk 6",decrease
same,"levels of complexes I, II and IV","[3]; 3D spheroids, low dose ddC",significantly increased
same,mitochondrial toxicity (decreasing levels of complexes I-IV),[3]; spheroids,significant dose- and time-dependent
same,complex I level (only complex affected),[3]; spheroids treated with ddC,declined
C[C@@H]1CCO[C@H]2Cn3cc(C(=O)NCc4ccc(F)cc4F)c(=O)c(O)c3C(=O)N12 [dolutegravir],mitochondrial dysfunction,microglia cells,induces mitochondrial dysfunction
same,"pro-adipogenic and pro-lipogenic effects, oxidative stress, mitochondrial dysfunction, insulin resistance",[4],"display pro-adipogenic and pro-lipogenic effects, and promote oxidative stress, mitochondrial dysfunction, and insulin resistance"
same,levels of mitochondrial ROS and mitochondrial mass,CD4+ T cells,increased
COc1cc2c(cc1Cc1cccc(Cl)c1F)c(=O)c(C(=O)O)cn2[C@H](CO)C(C)C [elvitegravir],levels of mitochondrial ROS and mitochondrial mass,CD4+ T cells,increased
